The assay has as its target RNA-dependent RNA polymerase (RdRp) comprised in an influenza viral ribonucleoprotein (RNP) complex (Influenza A virus, UniProt P03428+P03431+P03433). Briefly: Influenza filter RNP transcription/replication assay (HTS screen using the method of the invention). It is filed as biochemical, Influenza virus (Influenza A/PR/8/34, Influenza B\Lee\40). The following applies: virus lysate containing native vRNP; which assay (transcription or replication) and which strain are not stated.

This passage reports IC50 results from US20190040447A1, “Assay for compounds having activity against influenza” (priority 2016, published 2019).

Broadly, the IC50 is the midpoint of a concentration-inhibition curve. The low end stands for inhibition by little substance, the high end for a need for much substance. `O=C(O)[C@H]1[C@H]2CC[C@H]([C@H]3C[C@H]32)[C@@H]1Nc1nc(-c2n[nH]c3ncc(F)cc23)ncc1F` [(−)-(1R,2S,4R,5S,6S,7S)-7-((5-fluoro-2-(5-fluoro-1H-pyrazolo[3,4-b]pyridin-3-yl)pyrimidin-4-yl)amino)tricyclo[3.2.2.02,4]nonane-6-carboxylic Acid] displayed an IC50 of 0.2 nM.
